Test results taken from PubChem BioAssay (NCI).
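Cultured in 96-well plates, cells were exposed to test compound for 48 hours across five concentrations. TGI marks complete inhibition of growth.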

How the values were obtained:
Experiment in all cases: growth of human tumour cells (NCI), 48 h
786-0 renal = tested on: 786-0 renal
A549 NSCLC = tested on: A549 NSCLC
ACHN renal = tested on: ACHN renal
BT-549 breast = tested on: BT-549 breast
CAKI-1 renal = tested on: CAKI-1 renal
COLO 205 colon = tested on: COLO 205 colon
DU-145 prostate = tested on: DU-145 prostate
EKVX NSCLC = tested on: EKVX NSCLC
HCT-116 colon = tested on: HCT-116 colon
HCT-15 colon = tested on: HCT-15 colon
HL-60(TB) leukemia = tested on: HL-60(TB) leukemia
HOP-62 NSCLC = tested on: HOP-62 NSCLC
HOP-92 NSCLC = tested on: HOP-92 NSCLC
HS 578T breast = tested on: HS 578T breast
HT29 colon = tested on: HT29 colon
IGROV1 ovarian = tested on: IGROV1 ovarian
K-562 leukemia = tested on: K-562 leukemia
KM12 colon = tested on: KM12 colon
LOX IMVI melanoma = tested on: LOX IMVI melanoma
MALME-3M melanoma = tested on: MALME-3M melanoma
MCF7 breast = tested on: MCF7 breast
MDA-MB-231 breast = tested on: MDA-MB-231 breast
MDA-MB-435 = tested on: MDA-MB-435
NCI-H226 lung = tested on: NCI-H226 lung
NCI-H23 lung = tested on: NCI-H23 lung
NCI-H460 lung = tested on: NCI-H460 lung
NCI-H522 lung = tested on: NCI-H522 lung
NCI/ADR-RES ovarian = tested on: NCI/ADR-RES ovarian
OVCAR-3 ovarian = tested on: OVCAR-3 ovarian
OVCAR-4 ovarian = tested on: OVCAR-4 ovarian
OVCAR-5 ovarian = tested on: OVCAR-5 ovarian
OVCAR-8 ovarian = tested on: OVCAR-8 ovarian
PC-3 prostate = tested on: PC-3 prostate
RXF 393 renal = tested on: RXF 393 renal
SF-268 CNS = tested on: SF-268 CNS
SF-295 CNS = tested on: SF-295 CNS
SF-539 CNS = tested on: SF-539 CNS
SK-MEL-2 melanoma = tested on: SK-MEL-2 melanoma
SK-MEL-28 melanoma = tested on: SK-MEL-28 melanoma
SK-MEL-5 melanoma = tested on: SK-MEL-5 melanoma
SK-OV-3 ovarian = tested on: SK-OV-3 ovarian
SN12C renal = tested on: SN12C renal
SNB-19 CNS = tested on: SNB-19 CNS
SNB-75 CNS = tested on: SNB-75 CNS
SR leukemia = tested on: SR leukemia
SW-620 colon = tested on: SW-620 colon
T-47D breast = tested on: T-47D breast
TK-10 renal = tested on: TK-10 renal
U251 CNS = tested on: U251 CNS
UACC-257 melanoma = tested on: UACC-257 melanoma
UACC-62 melanoma = tested on: UACC-62 melanoma
UO-31 renal = tested on: UO-31 renal

Compound: O=C1c2ccc3ccccc3c2CCC1N1CCCCC1 (configuration not stated)
- TGI (786-0 renal): 32.1 µM
- TGI (A549 NSCLC): 36.3 µM
- TGI (ACHN renal): 31.5 µM
- TGI (BT-549 breast): 74.7 µM
- TGI (CAKI-1 renal): 29.5 µM
- TGI (COLO 205 colon): 42.1 µM
- TGI (DU-145 prostate): 30.3 µM
- TGI (EKVX NSCLC): 51.7 µM
- TGI (HCT-116 colon): 31.7 µM
- TGI (HCT-15 colon): 37.4 µM
- TGI (HL-60(TB) leukemia): 49.6 µM
- TGI (HOP-62 NSCLC): 34 µM
- TGI (HOP-92 NSCLC): 32.2 µM
- TGI (HS 578T breast): 44.9 µM
- TGI (HT29 colon): 39 µM
- TGI (IGROV1 ovarian): 29.5 µM
- TGI (K-562 leukemia): 35 µM
- TGI (KM12 colon): 31.6 µM
- TGI (LOX IMVI melanoma): 33.7 µM
- TGI (MALME-3M melanoma): 31.4 µM
- TGI (MCF7 breast): > 100 µM
- TGI (MDA-MB-231 breast): 30.6 µM
- TGI (MDA-MB-435): 32.3 µM
- TGI (NCI-H226 lung): 31.4 µM
- TGI (NCI-H23 lung): 40.2 µM
- TGI (NCI-H460 lung): 50.4 µM
- TGI (NCI-H522 lung): 35.7 µM
- TGI (NCI/ADR-RES ovarian): 46.3 µM
- TGI (OVCAR-3 ovarian): 28.8 µM
- TGI (OVCAR-4 ovarian): 30.2 µM
- TGI (OVCAR-5 ovarian): 37.9 µM
- TGI (OVCAR-8 ovarian): 37.3 µM
- TGI (PC-3 prostate): 42.3 µM
- TGI (RXF 393 renal): 46.5 µM
- TGI (SF-268 CNS): 39.7 µM
- TGI (SF-295 CNS): 37.9 µM
- TGI (SF-539 CNS): 28.8 µM
- TGI (SK-MEL-2 melanoma): 44.4 µM
- TGI (SK-MEL-28 melanoma): 33.1 µM
- TGI (SK-MEL-5 melanoma): 30.7 µM
- TGI (SK-OV-3 ovarian): 54.4 µM
- TGI (SN12C renal): 29 µM
- TGI (SNB-19 CNS): 40.8 µM
- TGI (SNB-75 CNS): 34.3 µM
- TGI (SR leukemia): 36.6 µM
- TGI (SW-620 colon): 34.5 µM
- TGI (T-47D breast): 54.3 µM
- TGI (TK-10 renal): 29.6 µM
- TGI (U251 CNS): 33.1 µM
- TGI (UACC-257 melanoma): 35 µM
- TGI (UACC-62 melanoma): 30.3 µM
- TGI (UO-31 renal): 29.1 µM
